Key:
Format in all cases: physicochemical
[1] = Dissociation of chelates in aq. 1.0M HCl at 80° C. (acid decomplexation kinetic inertness) (Chart 18)
[2] = Dissociation of chelates in aq. 0.1M HCl at RT (acid decomplexation kinetic inertness) (Chart 20)
[3] = Dissociation of chelates in aq. 0.1M HCl at 80° C. (acid decomplexation kinetic inertness) (Chart 19)
[4] = Dissociation of chelates in aq. 6.0M HCl at 80° C. (acid decomplexation kinetic inertness) (Chart 17)

Compound	fraction of intact chelate ([1]; 1 month) [%]	fraction of intact chelate ([1]; 1 week) [%]	fraction of intact chelate ([1]; 1 hour) [%]	fraction of intact chelate ([1]; 1 day) [%]	fraction of intact chelate ([2]; 1 month) [%]	fraction of intact chelate ([2]; 1 week) [%]	fraction of intact chelate ([2]; 1 hour) [%]	fraction of intact chelate ([2]; 1 day) [%]	fraction of intact chelate ([3]; 1 month) [%]	fraction of intact chelate ([3]; 1 week) [%]	fraction of intact chelate ([3]; 1 hour) [%]	fraction of intact chelate ([3]; 1 day) [%]	fraction of intact chelate ([4]; 1 month) [%]	fraction of intact chelate ([4]; 1 week) [%]	fraction of intact chelate ([4]; 1 hour) [%]	fraction of intact chelate ([4]; 1 day) [%]
O=C1C[N@@]2CC[N@]3CC[N@@](CC[N@](CC2)Cc2cccc(n2)-c2cnnn2Cc2cc(-c4ccccc4)cc(n2)C3)CC(=O)[O][Yb][O]1 [TD602]	100	100	100	100	100	100	100	100	100	100	100	100	90	98	100	100
O=C1C[N@@]2CC[N@]3CC[N@@](CC[N@](CC2)Cc2cccc(n2)-c2cnnn2Cc2cc(-c4ccccc4)cc(n2)C3)CC(=O)[O][Ho][O]1 [TD648]	96	99	100	100	100	100	100	100	100	100	100	100	0	17	99	81
O=C1C[N@@]2CC[N@]3CC[N@@](CC[N@](CC2)Cc2cccc(n2)-c2cnnn2Cc2cc(-c4ccccc4)cc(n2)C3)CC(=O)[O][Y][O]1 [TD649]	92	98	100	100	100	100	100	100	100	100	100	100	0	7	98	69
O=C1C[N@@]2CC[N@]3CC[N@@](CC[N@](CC2)Cc2cccc(n2)-c2cnnn2Cc2cc(-c4ccccc4)cc(n2)C3)CC(=O)[O][La][O]1 [TD651]	0	0	0	0	0	0	76	4	0	0	0	0	0	0	0	0
O=C([O-])CN1CCN2CCN(CC(=O)[O-])CCN(CC1)Cc1cccc(n1)-c1cnnn1Cc1cc(-c3ccccc3)cc(n1)C2.[Ca+2] [TD863]	0	0	0	0	0	0	39	0	0	0	0	0	0	0	0	0
O=C1C[N@@]2CC[N@]3CC[N@@](CC[N@](CC2)Cc2cccc(n2)-c2cnnn2Cc2cc(-c4ccccc4)cc(n2)C3)CC(=O)[O][Er][O]1 [TD865]	99	100	100	100	100	100	100	100	100	100	100	100	24	71	99	95
O=C1C[N@@]2CC[N@]3CC[N@@](CC[N@](CC2)Cc2cccc(n2)-c2cnnn2Cc2cc(-c4ccccc4)cc(n2)C3)CC(=O)[O][Dy][O]1 [TD866]	87	96	100	99	100	100	100	100	100	100	100	100	0	0	95	25
O=C1C[N@@]2CC[N@]3CC[N@@](CC[N@](CC2)Cc2cccc(n2)-c2cnnn2Cc2cc(-c4ccccc4)cc(n2)C3)CC(=O)[O][Sm][O]1 [TD867]	0	0	62	0	96	99	100	100	1	35	99	86	0	0	0	0
O=C1C[N@@]2CC[N@]3CC[N@@](CC[N@](CC2)Cc2cccc(n2)-c2cnnn2Cc2cc(-c4ccccc4)cc(n2)C3)CC(=O)[O][Nd][O]1 [TD868]	0	0	0	0	2	54	99	90	0	0	76	0	0	0	0	0
O=C1C[N@@]2CC[N@]3CC[N@@](CC[N@](CC2)Cc2cccc(n2)-c2cnnn2Cc2cc(-c4ccccc4)cc(n2)C3)CC(=O)[O][Ce][O]1 [TD870]	0	0	0	0	0	0	95	37	0	0	0	0	0	0	0	0

Reference: US20250147039A1, “Compounds for complexation of rare earth elements and/or s-, p-, d- block metals, their coordination compounds, peptide conjugates, method of their preparation and use thereof” (USTAV ORGANICKE CHEMIE A BIOCHEMIE AV CR V.V.I., priority 2021, published 2025)
